Results on 16 compounds are retold here after publication PMC10386076, “Discovery of RC-752, a Novel Sigma-1 Receptor Antagonist with Antinociceptive Activity: A Promising Tool for Fighting Neuropathic Pain” (Pharmaceuticals, 2023).

Usually Ki stands for the equilibrium dissociation constant of an inhibitor or competing ligand from its target.

For one series, the system named is PC12 cells. Briefly: NGF-induced neurite outgrowth assay in PC12 cells. The class given is cell-based. Particulars: 0.25 μM and 2.5 μM with 10 μM PRE-084, vs PRE-084. On the procedure: At 80% confluence, the cells were either split to allow a further culture expansion or plated onto 48-well flat-bottom plates previously coated with poly-L-ornithine (Sigma Aldrich, Milan, Italy) at the final concentration of 10 μg/cm^2. The cells were plated at low density (2500 cells/well) to allow proper neurite elongation. The PC12 cells were mechanically detached from the flask to avoid cell-surface receptor cleavage and to preserve the correct binding of NGF to the TrkA receptors. To minimize detachment stress, the cells were left in PM for 24 h to recover. […] PRE-084 (10 µM), an S1R agonist, was used to verify that the effects of the selected compounds were due to the S1R modulation. In CTR conditions, the cells were incubated with the drug vehicle. For all the ligands, two replicates per concentration were performed in at least 3 experiments with different PC12 batches.
After 72 h incubation in DM, the cells were fixed with a 4% paraformaldehyde solution (pH 7.4). To allow the neurite visualization with a bright-field microscope, the cells were stained with the Harris Hematoxylin solution (Sigma Aldrich). After staining, images of six fields per well were acquired with a digital camera linked to a bright-field inverted microscope (Optika) (20× magnification). […] Only the cells bearing a neurite as long as their soma’s diameter were identified as differentiated cells. The number of differentiated cells was expressed as the percentage of differentiated cells over the total number of cells.
In the case of `OCC(CCN1CCOCC1)c1ccc(-c2ccccc2)cc1` (stereo not drawn) [Compound 1a, 2-([1,1’-biphenyl]-4-yl)-4-morpholinobutan-1-ol], the “effect on percentage of differentiated PC12 cells, co-administration with PRE-084” value is recorded as “significantly reduced”.

With `OCC(CCN1CCCCC1)c1ccc2ccccc2c1` (stereo not drawn) [Compound 2d, 2-(naphthalen-2-yl)-4-(piperidin-1-yl)butan-1-ol], the “effect on percentage of differentiated PC12 cells, co-administration with PRE-084” value was “significantly reduced”.

The same series, now with this note: 0.25 μM and 2.5 μM, alone, vs NGF.
On to `OCC(CCN1CCOCC1)c1ccc(-c2ccccc2)cc1` (stereo not drawn) [Compound 1a, 2-([1,1’-biphenyl]-4-yl)-4-morpholinobutan-1-ol], for which the “effect on NGF-induced neurite outgrowth, compound alone” value was “did not significantly enhance”.

In the case of `OCC(CCN1CCCCC1)c1ccc2ccccc2c1` (stereo not drawn) [Compound 2d, 2-(naphthalen-2-yl)-4-(piperidin-1-yl)butan-1-ol], the “effect on NGF-induced neurite outgrowth, compound alone” value is recorded as “did not significantly enhance”.

Staying with this series, now noted: NGF alone at 2.5 nM.
Turning to NGF, the “differentiation, % of PC12 cells” value stood at 22 ± 2%.

Staying with this series, now noted: PRE-084 at 10 μM, with NGF.
With `O=C(OCCN1CCOCC1)C1(c2ccccc2)CCCCC1` [PRE-084, reference compound], the “neurite outgrowth, % of PC12 cells” value amounted to 36 ± 4%.

The next series deals with HeLa cells. Briefly: AQP-mediated osmotic water permeability assay (stopped-flow light scattering). To be noted: pre-treatment 20 μM, heat stress 42 °C 3 h. On the procedure: As an orthogonal assay to determine the functional profile of our compounds, the effect on AQP-mediated water permeability was investigated. AQPs are a family of transmembrane proteins involved in the transport of water and other small molecules (e.g., H2O2) through cell membranes. AQP functions are thus critical in ensuring reactive oxygen species (ROS) scavenging and cell survival. […] Briefly, the osmotic water permeability of HeLa cells was measured by a stopped-flow light scattering method and expressed as a percentage of k relative.
Osmotic water permeability was measured in the HeLa cell suspension by the stopped-flow light scattering method, as previously described. The experiments were performed at 25 °C on the stopped-flow apparatus (RX2000, Applied Photophysics, Leatherhead, UK) with a pneumatic drive accessory (DA.1, Applied Photophysics) straightforwardly coupled with a Varian Cary 50 spectrometer (Varian Australia Pty Ltd., Mulgrave, Australia). Briefly, scattered light intensity with a dead time of 6 ms was recorded at a wavelength of 450 nm. […] To evaluate the effect of the test compounds on water permeability, the HeLa cells were divided into different groups: (1) controls, cells incubated at r.t. (21 °C) in the presence of the same volume of methanol as that of the treated cells; (2) heat-stressed cells, cells heat-treated in a water thermostatic and shacking bath at 42 °C for 3 h; (3) heat-stressed cells pre-treated with the test compounds at a 20 µM final concentration (dissolved in methanol).
Turning to `OCC(CCN1CCOCC1)c1ccc(-c2ccccc2)cc1` (stereo not drawn) [Compound 1a, 2-([1,1’-biphenyl]-4-yl)-4-morpholinobutan-1-ol], the “effect on water permeability in heat-stressed HeLa cells” value (“effect on water permeability” for short) is “in line with that of S1R antagonists”.

`O=C(OCCN1CCOCC1)C1(c2ccccc2)CCCCC1` [PRE-084, reference compound]: the “effect on water permeability” value is recorded as “effective in restoring water permeability”.

Consider `OCC(CCN1CCCCC1)c1ccc2ccccc2c1` (stereo not drawn) [Compound 2d, 2-(naphthalen-2-yl)-4-(piperidin-1-yl)butan-1-ol], for which the “effect on water permeability” value is “in line with that of S1R antagonists”.

Turning to `CCCN(CCC)CCc1ccc(OC)c(OCCc2ccccc2)c1` [NE-100, reference compound], the “effect on water permeability” value was “has no effect”.

The target in the next series is T1, S1R (Cavia porcellus, UniProt Q60492).
T1 construct: tissue Harlan-Winkelmann, Borchen, Germany; host or cells: guinea pig brain membrane homogenate
T1 sequence (Q60492 whole entry): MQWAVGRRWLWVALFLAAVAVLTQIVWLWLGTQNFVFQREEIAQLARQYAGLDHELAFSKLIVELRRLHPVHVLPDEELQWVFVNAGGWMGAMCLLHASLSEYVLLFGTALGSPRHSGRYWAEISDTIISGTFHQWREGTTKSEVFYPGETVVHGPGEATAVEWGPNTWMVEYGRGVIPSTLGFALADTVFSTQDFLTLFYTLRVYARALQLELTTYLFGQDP
The experiment in a line: S1R radioligand displacement binding assay ([3H]-(+)-pentazocine). The arrangement: species or system guinea pig.
Conditions: not given
As for the experimental part:
(R/S)-1a–3e were first evaluated for their binding affinity toward the S1R and S2R in a radioligand displacement assay. […] Nonspecific binding was determined using non-radiolabeled (+)-pentazocine and haloperidol in excess. All the binding experiments were carried out in duplicate. […] Haloperidol was used as a control compound in both assays.
Five guinea pig brains were homogenized with the potter (500–800 rpm, 10 up and down strokes) in 6 volumes of cold 0.32 M sucrose. The suspension was centrifuged at 1200× g for 10 min at 4 °C. […] This procedure was repeated twice. The final pellet was resuspended in 56 volumes of buffer and frozen ([…]) in 1.5 mL portions containing about 1.5 mg protein/mL.
The test compound solutions were prepared by dissolving approximately 10 µmol (usually 2–4 mg) of test compound in dimethyl sulfoxide (DMSO, unless otherwise specified), so that a 10 mM stock solution was obtained. To obtain the required test solutions for the assay, the DMSO stock solution was diluted with the respective assay buffer. The filtermats were presoaked in 0.5% aqueous polyethylenamine solution for 2 h at r.t. before use. All the binding experiments were carried out in duplicate in 96-well multiplates. The concentrations given are the final concentrations in the assay. […] The receptor preparation was always added last. During the incubation, the multiplates were shaken at a speed of 500–600 rpm at the specified temperature. […] During the filtration each well was washed five times with 300 µL of water. Subsequently, the filtermats were dried at 95 °C. The solid scintillator was melted on the dried filtermats at 95 °C for 5 min. After the solidifying of the scintillator at r.t., the trapped radioactivity in the filtermats was measured with the scintillation analyzer. Each position on the filtermat corresponding to one well of the multiplate was measured for 5 min with the [^3H]-counting protocol. The overall counting efficiency was 20%. The IC50 values were calculated with GraphPad Prism 3.0 (GraphPad Software, San Diego, CA, USA) by nonlinear regression analysis. The IC50 values were subsequently transformed into Ki values using the equation of Cheng and Prusoff. All the experiments were carried out in duplicates. Compounds with high S1R affinity were tested in three independent experiments, and their Ki values are given as mean value ± SEM from the three measurements. […] (22.0 Ci/mmol; Perkin-Elmer). […] The nonspecific binding was determined with 10 µM unlabeled (+)-pentazocine.
(In a radioligand displacement assay an active substance lowers the binding of a labelled ligand.)
`OCC(CCN1CCOCC1)c1ccc(-c2ccccc2)cc1` (stereo not drawn) [Compound 1a, 2-([1,1’-biphenyl]-4-yl)-4-morpholinobutan-1-ol] gave a Ki of 0.013 ± 0.003 µM.

Take `COc1ccc2cc(C(CO)CCN3CCC(Cc4ccccc4)CC3)ccc2c1` (stereo not drawn) [Compound 3e, 4-(4-benzylpiperidin-1-yl)-2-(6-methoxynaphthalen-2-yl)butan-1-ol]: affinity was put at a Ki of 0.085 ± 0.011 µM.

In the case of `COc1ccc2cc(C(CO)CCN3CCOCC3)ccc2c1` (stereo not drawn) [Compound 3a, 2-(6-methoxynaphthalen-2-yl)-4-morpholinobutan-1-ol], the affinity corresponds to a Ki of 0.324 ± 0.01 µM.

As for `OCC(CCN1CCC(Cc2ccccc2)CC1)c1ccc2ccccc2c1` (stereo not drawn) [Compound 2e, 4-(4-benzylpiperidin-1-yl)-2-(naphthalen-2-yl)butan-1-ol], the affinity corresponds to a Ki of 0.025 ± 0.004 µM.

Take `COc1ccc2cc(C(CO)CCN3CCCCC3)ccc2c1` (stereo not drawn) [Compound 3d, 2-(6-methoxynaphthalen-2-yl)-4-(piperidin-1-yl)butan-1-ol]: the Ki worked out at 0.038 ± 0.009 µM.

On to `OCC(CCN1CCC(Cc2ccccc2)CC1)c1ccc(-c2ccccc2)cc1` (stereo not drawn) [Compound 1e, 2-([1,1’-biphenyl]-4-yl)-4-(4-benzylpiperidin-1-yl)butan-1-ol], for which the affinity, expressed as Ki, was 0.094 ± 0.012 µM.

Compound `CN(CCC(CO)c1ccc2ccccc2c1)Cc1ccccc1` (stereo not drawn) [Compound 2c, 4-(benzyl(methyl)amino)-2-(naphthalen-2-yl)butan-1-ol] returned a Ki of 0.0095 ± 0.0018 µM.

In turn, `CCN(CC)CCC(CO)c1ccc2ccccc2c1` (stereo not drawn) [Compound 2b, 4-(diethylamino)-2-(naphthalen-2-yl)butan-1-ol] had a Ki of 0.11 ± 0.025 µM.

The compound `OCC(CCN1CCOCC1)c1ccc2ccccc2c1` (stereo not drawn) [Compound 2a, 4-morpholino-2-(naphthalen-2-yl)butan-1-ol] returned a Ki of 0.206 ± 0.037 µM.

Regarding `CCN(CC)CCC(CO)c1ccc2cc(OC)ccc2c1` (stereo not drawn) [Compound 3b, 4-(diethylamino)-2-(6-methoxynaphthalen-2-yl)butan-1-ol], the Ki is 0.087 ± 0.028 µM.

For `OCC(CCN1CCCCC1)c1ccc2ccccc2c1` (stereo not drawn) [Compound 2d, 2-(naphthalen-2-yl)-4-(piperidin-1-yl)butan-1-ol], the Ki is 0.015 ± 0.006 µM.

The compound `CCN(CC)CCC(CO)c1ccc(-c2ccccc2)cc1` (stereo not drawn) [Compound 1b, 2-([1,1’-biphenyl]-4-yl)-4-(diethylamino)butan-1-ol] registered a Ki of 0.02 ± 0.004 µM.

With `COc1ccc2cc(C(CO)CCN(C)Cc3ccccc3)ccc2c1` (stereo not drawn) [Compound 3c, 4-(benzyl(methyl)amino)-2-(6-methoxynaphthalen-2-yl)butan-1-ol], the affinity corresponds to a Ki of 0.02 ± 0.003 µM.

The same series, now with this note: ratio Ki S2R/Ki S1R.
For `OCC(CCN1CCOCC1)c1ccc(-c2ccccc2)cc1` (stereo not drawn) [Compound 1a, 2-([1,1’-biphenyl]-4-yl)-4-morpholinobutan-1-ol], the “Selectivity (Ki S2R/Ki S1R)” value stood at 24.

Regarding `COc1ccc2cc(C(CO)CCN3CCC(Cc4ccccc4)CC3)ccc2c1` (stereo not drawn) [Compound 3e, 4-(4-benzylpiperidin-1-yl)-2-(6-methoxynaphthalen-2-yl)butan-1-ol], the “Selectivity (Ki S2R/Ki S1R)” value was 0.6.

As to `COc1ccc2cc(C(CO)CCN3CCOCC3)ccc2c1` (stereo not drawn) [Compound 3a, 2-(6-methoxynaphthalen-2-yl)-4-morpholinobutan-1-ol], the “Selectivity (Ki S2R/Ki S1R)” value is 4.

Consider `OCC(CCN1CCC(Cc2ccccc2)CC1)c1ccc2ccccc2c1` (stereo not drawn) [Compound 2e, 4-(4-benzylpiperidin-1-yl)-2-(naphthalen-2-yl)butan-1-ol], for which the “Selectivity (Ki S2R/Ki S1R)” value turned out to be 13.

Take `COc1ccc2cc(C(CO)CCN3CCCCC3)ccc2c1` (stereo not drawn) [Compound 3d, 2-(6-methoxynaphthalen-2-yl)-4-(piperidin-1-yl)butan-1-ol]: the “Selectivity (Ki S2R/Ki S1R)” value is recorded as 32.

As for `OCC(CCN1CCC(Cc2ccccc2)CC1)c1ccc(-c2ccccc2)cc1` (stereo not drawn) [Compound 1e, 2-([1,1’-biphenyl]-4-yl)-4-(4-benzylpiperidin-1-yl)butan-1-ol], the “Selectivity (Ki S2R/Ki S1R)” value is on record as 2.

Regarding `CN(CCC(CO)c1ccc2ccccc2c1)Cc1ccccc1` (stereo not drawn) [Compound 2c, 4-(benzyl(methyl)amino)-2-(naphthalen-2-yl)butan-1-ol], the “Selectivity (Ki S2R/Ki S1R)” value was 4.

Take `CCN(CC)CCC(CO)c1ccc2ccccc2c1` (stereo not drawn) [Compound 2b, 4-(diethylamino)-2-(naphthalen-2-yl)butan-1-ol]: the “Selectivity (Ki S2R/Ki S1R)” value is reported as 10.

With `OCC(CCN1CCOCC1)c1ccc2ccccc2c1` (stereo not drawn) [Compound 2a, 4-morpholino-2-(naphthalen-2-yl)butan-1-ol], the “Selectivity (Ki S2R/Ki S1R)” value was 31.

For `CCN(CC)CCC(CO)c1ccc2cc(OC)ccc2c1` (stereo not drawn) [Compound 3b, 4-(diethylamino)-2-(6-methoxynaphthalen-2-yl)butan-1-ol], the “Selectivity (Ki S2R/Ki S1R)” value was found to be 14.

With `OCC(CCN1CCCCC1)c1ccc2ccccc2c1` (stereo not drawn) [Compound 2d, 2-(naphthalen-2-yl)-4-(piperidin-1-yl)butan-1-ol], the “Selectivity (Ki S2R/Ki S1R)” value is 11.

Take `CCN(CC)CCC(CO)c1ccc(-c2ccccc2)cc1` (stereo not drawn) [Compound 1b, 2-([1,1’-biphenyl]-4-yl)-4-(diethylamino)butan-1-ol]: the “Selectivity (Ki S2R/Ki S1R)” value came to 34.

As for `COc1ccc2cc(C(CO)CCN(C)Cc3ccccc3)ccc2c1` (stereo not drawn) [Compound 3c, 4-(benzyl(methyl)amino)-2-(6-methoxynaphthalen-2-yl)butan-1-ol], the “Selectivity (Ki S2R/Ki S1R)” value was 7.
